Eight compounds from patent publication US10870651B2, “Inhibitors of cyclin-dependent kinase 7 (CDK7)” (Dana-Farber Cancer Institute, Inc., priority 2014, dated 2020) can be followed below.

For orientation: IC50 means the concentration at which inhibition is half-maximal. A higher IC50 goes with weaker potency in that assay.

The target of this experiment is CDK7 (Homo sapiens (Human), UniProt P50613). Kind of experiment: Inhibition of kinase activity, CDK7. The experiment is classed as biochemical. Conditions: co-factors cyclin H and MNAT1. On the procedure: Compounds of the invention were assayed for activity against a variety of different kinases. Exemplary results are presented as calculated IC50 values (Table A1 & A2). In Table A1 and A2 “A” represents a calculated IC50 value of less than 100 nM; “B” represents a calculated IC50 value of greater than or equal to 100 nM and less than 1 μM; and “C” represents a calculated IC50 value of 1 μM or greater. The co-factors used for each kinase in the assays were as follows: CDK7: cyclin H and MNAT1; CDK2: cyclin A; CDK9: cyclin K.

The structures appear in SMILES notation. Where only a bound is given, the exact number is not on record here.

Chain of CDK7 (P50613 whole entry): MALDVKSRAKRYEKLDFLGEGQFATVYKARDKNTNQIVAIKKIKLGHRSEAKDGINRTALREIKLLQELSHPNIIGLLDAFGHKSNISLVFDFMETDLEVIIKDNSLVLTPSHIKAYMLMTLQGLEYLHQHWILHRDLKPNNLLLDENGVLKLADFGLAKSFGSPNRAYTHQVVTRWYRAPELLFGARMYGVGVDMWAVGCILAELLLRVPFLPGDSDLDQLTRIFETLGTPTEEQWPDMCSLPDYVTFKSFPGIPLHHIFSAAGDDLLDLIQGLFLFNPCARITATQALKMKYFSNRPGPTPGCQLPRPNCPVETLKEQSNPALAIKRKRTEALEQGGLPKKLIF
Chain of CDK7 (P51946 whole entry partner): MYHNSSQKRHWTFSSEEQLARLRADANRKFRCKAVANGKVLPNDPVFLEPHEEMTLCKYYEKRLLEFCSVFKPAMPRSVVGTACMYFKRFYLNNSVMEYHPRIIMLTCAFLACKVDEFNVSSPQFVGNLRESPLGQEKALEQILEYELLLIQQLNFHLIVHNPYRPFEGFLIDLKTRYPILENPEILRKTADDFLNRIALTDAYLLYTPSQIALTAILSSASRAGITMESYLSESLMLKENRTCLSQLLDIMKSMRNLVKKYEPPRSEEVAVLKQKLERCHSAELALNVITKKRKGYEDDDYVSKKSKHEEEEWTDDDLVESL
Chain of CDK7 (P51948 whole entry partner): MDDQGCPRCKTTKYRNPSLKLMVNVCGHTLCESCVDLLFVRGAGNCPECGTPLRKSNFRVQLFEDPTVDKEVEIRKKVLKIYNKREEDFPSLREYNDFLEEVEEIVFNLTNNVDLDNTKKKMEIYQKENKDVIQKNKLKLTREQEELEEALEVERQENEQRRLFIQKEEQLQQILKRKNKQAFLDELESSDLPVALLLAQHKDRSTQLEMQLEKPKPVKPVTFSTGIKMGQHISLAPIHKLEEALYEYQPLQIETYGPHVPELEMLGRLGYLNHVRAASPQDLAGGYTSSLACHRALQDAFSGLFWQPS

The compound `C=CC(=O)Nc1ccc(C(=O)Nc2n[nH]c3c2CN(C(=O)N[C@H](CN(C)C)c2ccccc2)C32CCCCC2)cc1` [Compound 236, (S)-3′-(4-acrylamidobenzamido)-N-(2-(dimethylamino)-1-phenylethyl)-1′,4′-dihydro-5′H-spiro(cyclohexane-1,6′-pyrrolo[3,4-c]pyrazole]-5′-carboxamide] registered an IC50 of 0.1 to 1 µM. As for `C=CC(=O)Nc1ccc(C(=O)Nc2n[nH]c3c2CN(C(=O)N[C@H](CN(C)C)c2ccccc2)[C@@H]3c2ccccc2)cc1` [Compound 237, (R)-3-(4-acrylamidobenzamido)-N-((S)-2-(dimethylamino)-1-phenylethyl)-6-phenyl-4,6-dihydropyrrolo[3,4-c]pyrazole-5(1H)-carboxamide], the IC50 is ≥ 1 µM. For the compound `C=CC(=O)Nc1ccc(C(=O)Nc2n[nH]c3c2CN(C(=O)N[C@H](CN(C)C)c2ccccc2)[C@H]3c2ccccc2)cc1` [Compound 239, (S)-3-(4-acrylamidobenzamido)-N-((S)-2-(dimethylamino)-1-phenylethyl)-6-phenyl-4,6-dihydropyrrolo[3,4-c]pyrazole-5(1H)-carboxamide], the IC50 is ≥ 1 µM. Regarding `C=CC(=O)Nc1cccc(C(=O)Nc2nn(C)c3c2CN(C(=O)N[C@H](CN(C)C)c2ccccc2)C3(C)C)c1` [Compound 241, (S)-3-(3-acrylamidobenzamido)-N-(2-(dimethylamino)-1-phenylethyl)-1,6,6-trimethyl-4,6-dihydropyrrolo[3,4-c]pyrazole-5(1H)-carboxamide], the IC50 is < 0.1 µM.

With `C=CC(=O)Nc1ccc(C(=O)Nc2c3c(nn2C)C(C)(C)N(C(=O)N[C@H](CN(C)C)c2ccccc2)C3)cc1` [Compound 242, (S)-3-(4-acrylamidobenzamido)-N-(2-(dimethylamino)-1-phenylethyl)-2,6,6-trimethyl-2,6-dihydropyrrolo[3,4-c]pyrazole-5(4H)-carboxamide], the IC50 is ≥ 1 µM. Take `C=CC(=O)Nc1ccc(C(=O)Nc2nn(C)c3c2CN(C(=O)N[C@H](CN(C)C)c2ccccc2)C3(C)C)c(OC)c1` [Compound 243, (S)-3-(4-acrylamido-2-methoxybenzamido)-N-(2-(dimethylamino)-1-phenylethyl)-1,6,6-trimethyl-4,6-dihydropyrrolo[3,4-c]pyrazole-5(1H)-carboxamide]: the IC50 is ≥ 1 µM. As to `C=CC(=O)Nc1ccc(C(=O)Nc2c3c(nn2C)C(C)(C)N(C(=O)N[C@H](CN(C)C)c2ccccc2)C3)c(OC)c1` [Compound 244, (S)-3-(4-acrylamido-2-methoxybenzamido)-N-(2-(dimethylamino)-1-phenylethyl)-2,6,6-trimethyl-2,6-dihydropyrrolo[3,4-c]pyrazole-5(4H)-carboxamide], the half-maximal inhibitory concentration (IC50) is ≥ 1 µM.

Turning to `C=CC(=O)Nc1ccc(C(=O)Nc2nn(C)c3c2CN(C(=O)O[C@H](CN(C)C)c2ccccc2)C3(C)C)cc1` [Compound 246, (S)-2-(dimethylamino)-1-phenylethyl 3-(4-acrylamidobenzamido)-1,6,6-trimethyl-4,6-dihydropyrrolo[3,4-c]pyrazole-5(1H)-carboxylate], the IC50 fell in the range of 0.1 to 1 µM.
